Reference: PMC6572176, “Functional Glyco-Nanogels for Multivalent Interaction with Lectins” (Molecules, 2019)

Columns and labels:
[1] = molecular target: T1, Ulex europaeus agglutinin I (UEA I) (Ulex europaeus, UniProt P22972); experiment: ELISA-type competitive inhibition, fluorescein-labeled lectin on immobilized porcine stomach mucin; format: binding; details: 10 mM HEPES, 150 mM NaCl, 0.1 mM CaCl2, pH 7.5, 1 h
T1 construct: native plant lectin, fluorescein-labeled (Vector Laboratories)
T1 sequence (P22972 1-243): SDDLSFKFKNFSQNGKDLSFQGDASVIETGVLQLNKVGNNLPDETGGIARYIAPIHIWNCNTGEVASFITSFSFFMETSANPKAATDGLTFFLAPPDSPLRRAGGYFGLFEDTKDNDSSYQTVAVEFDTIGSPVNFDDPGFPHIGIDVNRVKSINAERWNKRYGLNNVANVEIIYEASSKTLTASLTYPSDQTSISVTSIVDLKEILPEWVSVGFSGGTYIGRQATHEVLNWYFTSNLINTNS

[2] = molecular target: T2, Erythrina cristagalli lectin (ECL) (Erythrina crista-galli, UniProt P83410); experiment: ELISA-type competitive inhibition, fluorescein-labeled lectin on immobilized asialofetuin; format: binding; details: 10 mM HEPES, 150 mM NaCl, 0.1 mM CaCl2, pH 7.5, 1 h
T2 construct: native plant lectin, fluorescein-labeled (Vector Laboratories); dimeric
T2 sequence (P83410 1-239): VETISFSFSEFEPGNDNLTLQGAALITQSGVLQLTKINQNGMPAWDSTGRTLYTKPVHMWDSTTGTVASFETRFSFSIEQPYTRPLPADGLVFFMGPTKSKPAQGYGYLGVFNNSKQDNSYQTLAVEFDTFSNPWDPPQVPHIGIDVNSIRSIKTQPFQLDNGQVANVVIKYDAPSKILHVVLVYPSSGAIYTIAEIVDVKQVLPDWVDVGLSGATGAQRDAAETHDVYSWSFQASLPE

SMILES | IC50 [1] | IC50 [2]
C[C@@H]1OC(O)[C@@H](O)[C@H](O)[C@@H]1O (some centres unmarked) [fucose] | The IC50 value of fucose for UEA I binding is three-times | –
OC[C@H]1O[C@@H](O[C@H]2[C@H](O)[C@@H](O)C(O)O[C@@H]2CO)[C@H](O)[C@@H](O)[C@H]1O (some centres unmarked) [lactose] | – | free lactose is a potent inhibitor for ECL with IC50 in the same range
